Reference: patent US9284333B2, “Fused pyrroledicarboxamides and their use as pharmaceuticals” (SANOFI, priority 2012, dated 2016)

biological target: Human TASK-1 channels (Homo sapiens (Human), UniProt O14649); test: Determination of the activity on the TASK-1 channel in Xenopus oocytes (two-microelectrode voltage clamp); format: cell-based; conditions: compound concentration 5 μM
Procedure, shortened: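 Current during 500 ms pulses to 40 mV from a −90 mV hold was recorded in oocytes expressing human TASK-1 for two days after cRNA injection. Compounds were added cumulatively to the ND96 bath (pH 7.4, room temperature). IC50 came from dose-response fitting of inhibition relative to pre-compound current.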

Human TASK-1 channels, sequence (O14649 whole entry): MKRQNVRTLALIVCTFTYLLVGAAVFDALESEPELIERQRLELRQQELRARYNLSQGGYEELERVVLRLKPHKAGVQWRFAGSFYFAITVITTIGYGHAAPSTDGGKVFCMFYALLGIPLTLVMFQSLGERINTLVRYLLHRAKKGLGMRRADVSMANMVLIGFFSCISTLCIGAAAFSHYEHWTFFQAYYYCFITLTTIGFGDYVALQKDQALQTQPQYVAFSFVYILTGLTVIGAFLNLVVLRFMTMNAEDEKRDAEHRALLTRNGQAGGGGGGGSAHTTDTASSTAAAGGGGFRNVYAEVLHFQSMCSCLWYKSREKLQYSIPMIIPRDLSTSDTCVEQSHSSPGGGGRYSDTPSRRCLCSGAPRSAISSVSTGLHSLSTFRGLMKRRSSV

inhibition at 5 µM [%]	Molecule
70	CC[C@@H](NC(=O)c1cc(C(=O)N2CCC[C@@H]2C)c2n1CCOC2)c1ccc(C#N)cc1 [16nl, 8-((S)-2-Methyl-pyrrolidine-1-carbonyl)-3,4-dihydro-1H-pyrrolo[2,1-c][1,4]oxazine-6-carboxylic acid [(R)-1-(4-cyano-phenyl)-propyl]-amide]
53	CC[C@@H](NC(=O)c1cc(C(=O)N2CCCCC2C)n2c1COCC2)c1ccc(C(F)(F)F)nc1 (stereo partly drawn) [16pc, 6-(2-Methyl-piperidine-1-carbonyl)-3,4-dihydro-1H-pyrrolo[2,1-c][1,4]oxazine-8-carboxylic acid [(R)-1-(6-trifluoromethyl-pyridin-3-yl)-propyl]-amide]

same assay, conditions: compound concentration 10 μM (footnote a)

inhibition at 10 µM [%]	Molecule
70	CC[C@@H](NC(=O)c1cc(C(=O)N(C)[C@@H](C)C(=O)N(C)C)n2c1COCC2)c1ccccc1 [16rk, 3,4-dihydro-1H-pyrrolo[2,1-c][1,4]oxazine-6,8-dicarboxylic acid 6-[((S)-1-dimethylcarbamoyl-ethyl)methyl-amide] 8-[((R)-1-phenyl-propyl)-amide]]

same assay, conditions: human TASK-1 expressed in Xenopus oocytes, room temperature; read-out: IC50 value for TASK-1 inhibition

Molecule	IC50 [nM]
CCO[C@H]1CCN(C(=O)c2cc(C(=O)N[C@H](CC)c3ccccc3)c3n2CCOC3)C1 [16es, 6-((S)-3-Ethoxy-pyrrolidine-1-carbonyl)-3,4-dihydro-1H-pyrrolo[2,1-c][1,4]oxazine-8-carboxylic acid ((R)-1-phenyl-propyl)-amide]	1800
CC[C@@H](NC(=O)c1cc(C(=O)N2CCN(c3ccccn3)CC2)n2c1COCC2)c1ccccc1 [16fq, 6-(4-Pyridin-2-yl-piperazine-1-carbonyl)-3,4-dihydro-1H-pyrrolo[2,1-c][1,4]oxazine-8-carboxylic acid ((R)-1-phenyl-propyl)-amide]	1100
CC[C@@H](NC(=O)c1cc(C(=O)N2CC[C@H](F)C2)n2c1CCCC2)c1ccccc1 [16mk, 3-((S)-3-Fluoro-pyrrolidine-1-carbonyl)-5,6,7,8-tetrahydro-indolizine-1-carboxylic acid ((R)-1-phenyl-propyl)-amide]	550
CC(C)[C@@H](NC(=O)c1cc(C(=O)N2CCC[C@@H]2C)n2c1COCC2)c1ccc(C#N)nc1 [16am, 6-((S)-2-Methyl-pyrrolidine-1-carbonyl)-3,4-dihydro-1H-pyrrolo[2,1-c][1,4]oxazine-8-carboxylic acid [(R)-1-(6-cyano-pyridin-3-yl)-2-methyl-propyl]-amide]	920
CC[C@@H](NC(=O)c1cc(C(=O)N2CCC[C@@H]2C)n2c1COCC2)c1ccc(C#N)cc1 [16ak, 6-((S)-2-Methyl-pyrrolidine-1-carbonyl)-3,4-dihydro-1H-pyrrolo[2,1-c][1,4]oxazine-8-carboxylic acid [(R)-1-(4-cyano-phenyl)-propyl]-amide]	1300
CC[C@@H](NC(=O)c1cc(C(=O)N2CCCC2C(C)(C)O)n2c1COCC2)c1ccccc1 (stereo partly drawn) [16ew, 6-[2-(1-Hydroxy-1-methyl-ethyl)-pyrrolidine-1-carbonyl]-3,4-dihydro-1H-pyrrolo[2,1-c][1,4]oxazine-8-carboxylic acid ((R)-1-phenyl-propyl)-amide]	3700
O=C(NC(c1ccc(F)cc1)C(F)(F)F)c1cc(C(=O)N2CCCC2)n2c1COCC2 (stereo not drawn) [16df, 6-(Pyrrolidine-1-carbonyl)-3,4-dihydro-1H-pyrrolo[2,1-c][1,4]oxazine-8-carboxylic acid [2,2,2-trifluoro-1-(4-fluoro-phenyl)-ethyl]-amide]	1910
CC[C@@H](NC(=O)c1cc(C(=O)N2CCC[C@@H]2C)n2c1COCC2)c1ccc(C(F)(F)F)cn1 [16bl, 6-((S)-2-Methyl-pyrrolidine-1-carbonyl)-3,4-dihydro-1H-pyrrolo[2,1-c][1,4]oxazine-8-carboxylic acid [(R)-1-(5-trifluoromethyl-pyridin-2-yl)-propyl]-amide]	820
CC[C@@H](NC(=O)c1cc(C(=O)NCC(=O)OC(C)C)n2c1COCC2)c1ccccc1 [16iw, {[8-((R)-1-Phenyl-propylcarbamoyl)-3,4-dihydro-1H-pyrrolo[2,1-c][1,4]oxazine-6-carbonyl]-amino}-acetic acid isopropyl ester]	620
CC[C@@H]1CCCN1C(=O)c1cc(C(=O)N[C@H](CC)c2ccccc2)c2n1CCOC2 (racemic) [16fd, 6-((R)-2-Ethyl-pyrrolidine-1-carbonyl)-3,4-dihydro-1H-pyrrolo[2,1-c][1,4]oxazine-8-carboxylic acid ((R)-1-phenyl-propyl)-amide]	730
CCOC(=O)[C@H]1CCCN1C(=O)c1cc(C(=O)N[C@H](CC)c2ccccc2)c2n1CCOC2 [16ff]	540

Continued, values first:

IC50 [nM]	Molecule
520	CC[C@@H](NC(=O)c1cc(C(=O)N[C@H](CC)c2cccc(OC)n2)n2c1COCC2)c1ccc(C(F)(F)F)nc1 [16pb, 3,4-Dihydro-1H-pyrrolo[2,1-c][1,4]oxazine-6,8-dicarboxylic acid 6-{[(R)-1-(6-methoxy-pyridin-2-yl)-propyl]-amide} 8-{[(R)-1-(6-trifluoromethyl-pyridin-3-yl)-propyl]-amide}]
480	CC[C@@H](NC(=O)c1cc(C(=O)N[C@H](C)c2cnccn2)n2c1COCC2)c1ccccc1Cl [16nq, 3,4-Dihydro-1H-pyrrolo[2,1-c][1,4]oxazine-6,7-dicarboxylic acid 8-{[(R)-1-(2-chloro-phenyl)-propyl]-amide} 6-[((R)-1-pyrazin-2-yl-ethyl)-amide]]
440	CC[C@@H](NC(=O)c1cc(C(=O)N2CCC[C@@H]2C)n2c1COCC2)c1ccc(Cl)nc1 [16ar, 6-((S)-2-Methyl-pyrrolidine-1-carbonyl)-3,4-dihydro-1H-pyrrolo[2,1-c][1,4]oxazine-8-carboxylic acid [(R)-1-(6-chloro-pyridin-3-yl)-propyl]-amide]
290	CC[C@@H](NC(=O)c1cc(C(=O)N2CCC[C@@H]2C)n2c1COCC2)c1ccc(Cl)c(C(F)(F)F)c1 [16cs, 6-((S)-Methyl-pyrrolidine-1-carbonyl)-3,4-dihydro-1H-pyrrolo[2,1-c][1,4]oxazine-8-carboxylic acid [(R)-1-(4-chloro-3-trifluoromethyl-phenyl)-propyl]-amide]
220	C[C@@H](NC(=O)c1cc(C(=O)N[C@H](C)c2ccccc2F)c2n1CCOC2)c1ccc(F)cc1 [16dq, 3,4-Dihydro-1H-pyrrolo[2,1-c][1,4]oxazine-6,8-dicarboxylic acid 6-{[(R)-1-(4-fluoro-phenyl)-ethyl]-amide} 8-{[(R)-1-(2-fluoro-phenyl)-ethyl]-amide}]
220	CC[C@H](NC(=O)c1cc(C(=O)N[C@H](C)c2ccc(F)cc2)c2n1CCOC2)c1ccccc1 [16jp, 3,4-Dihydro-1H-pyrrolo[2,1-c][1,4]oxazine-6,8-dicarboxylic acid 8-{[(R)-1-(4-fluoro-phenyl)-ethyl]-amide} 6-[((S)-1-phenyl-propyl)-amide]]
210	CC[C@@H](NC(=O)c1cc(C(=O)Nc2c(C)noc2C)n2c1CCCC2)c1ccccc1 [16nd, 5,6,7,8-Tetrahydro-indolizine-1,3-dicarboxylic acid 3-[(3,5-dimethyl-isoxazol-4-yl)-amide] 1-[((R)-1-phenyl-propyl)-amide]]
200	6-((S)-2-Methyl-pyrrolidine-1-carbonyl)-3(4-dihydro-1H-pyrrolo[2,1-c][1,4]oxazine-8-carboxylic acid [(R)-1-(2,2-difluoro-benzo[1,3]dioxol-5-yl)-propyl]-amide [16bz]
170	CC[C@@H](NC(=O)c1cc(C(=O)NC(C)c2ncccn2)n2c1COCC2)c1ccc(F)cc1Cl (stereo partly drawn) [16np, 3,4-Dihydro-1H-pyrrolo[2,1-c][1,4]oxazine-6,8-dicarboxylic acid 8-{[(R)-1-(2-chloro-4-fluoro-phenyl)-propyl]-amide} 6-[(1-pyrimidin-2-yl-ethyl)-amide]]
120	CC[C@@H](NC(=O)c1cc(C(=O)N(C)CC(=O)OC(C)C)n2c1COCC2)c1ccccc1 [16iu, {Methyl-[8-((R)-1-phenyl-propylcarbamoyl)-3,4-dihydro-1H-pyrrolo[2,1-c][1,4]oxazine-6-carbonyl]-amino}-acetic acid isopropyl ester]
75	CC[C@@H](NC(=O)c1cc(C(=O)N(C)Cc2ccc(F)cc2)n2c1CCCC2)c1ccccc1 [16mu, 5,6,7,8-Tetrahydro-indolizine-1,3-dicarboxylic acid 3-[(4-fluoro-benzyl)-methyl-amide] 1-[((R)-1-phenyl-propyl)-amide]]
74	CC[C@@H](NC(=O)c1cc(C(=O)N2CCCC2)n2c1COCC2)c1ccccc1 [16cx, 6-(Pyrrolidine-1-carbonyl)-3,4-dihydro-1H-pyrrolo[2,1-c][1,4]oxazine-8-carboxylic acid ((R)-1-phenyl-propyl)-amide]
61	CC[C@@H](NC(=O)c1cc(C(=O)N2CCC[C@@H]2C)n2c1COCC2)c1cnc(OC)c(Cl)c1 [16b, 6-((S)-2-Methyl-pyrrolidine-1-carbonyl)-3,4-dihydro-1H-pyrrolo[2,1-c][1,4]oxazine-8-carboxylic acid [(R)-1-(5-chloro-6-methoxy-pyridin-3-yl)-propyl]-amide]
50	CC[C@@H](NC(=O)c1cc(C(=O)N2CCC[C@@H]2C)n2c1COCC2)c1c(F)cc(C(F)(F)F)cc1F [16cl, 6-((S)-2-Methyl-pyrrolidine-1-carbonyl)-3,4-dihydro-1H-pyrrolo[2,1-c][1,4]oxazine-8-carboxylic acid [(R)-1-(2,6-difluoro-4-trifluoromethyl-phenyl)-propyl]-amide]
33	CC[C@@H](NC(=O)c1cc(C(=O)N[C@H](C)c2ccc(F)cc2)n2c1CSC2)c1ccccc1 [16ky, 1H-Pyrrolo[1,2-c]thiazole-5,7-dicarboxylic acid 5-{[(R)-1-(4-fluoro-phenyl)-ethyl]-amide} 7-[((R)-1-phenyl-propyl)-amide]]
27	CC[C@@H](NC(=O)c1cc(C(=O)N[C@H](C)c2ccc(F)cc2)n2c1SCC2)c1ccccc1 [16kt, 2,3-Dihydro-pyrrolo[2,1-b]thiazole-5,7-dicarboxylic acid 5-{[(R)-1-(4-fluoro-phenyl)-ethyl]-amide} 7-[((R)-1-phenyl-propyl)-amide]]
